Experimental data taken from the NIST ThermoML archive (doi:10.1021/je0255628).
“And” between values parts separate entries of the source, which are not always exact repeats. Identical values can stand only once. ± gives the expanded uncertainty stated by the source.

settings: 308.15 K; Liquid

Row | Compound | vapor or sublimation pressure
1 | CCOCCO [2-ethoxyethan-1-ol] | 1.303 ± 0.16 kPa
2 | COC=O [methyl methanoate] | 114.88 ± 0.35 kPa

same assay, conditions: 313.15 K; Liquid

Row | Compound | vapor or sublimation pressure
3 | CCOCCO [2-ethoxyethan-1-ol] | 1.864 ± 0.16 kPa and 1.803 ± 0.16 kPa and 1.829 ± 0.16 kPa
4 | CCOC(C)=O [ethyl acetate] | 25.08 ± 0.2 kPa
5 | CCOC(=O)CC [ethyl propanoate] | 10.6 ± 0.17 kPa
6 | COC(C)=O [methyl ethanoate] | 53.81 ± 0.24 kPa
7 | CCCOC(C)=O [propyl ethanoate] | 9.586 ± 0.17 kPa
